Measurements reported in a melting point compilation (Tetko et al.).

Structure (SMILES) | melting point [°C]
O=C(CCl)ONc1nc2ccccc2[nH]c1=O | 187 to 189
Cc1nn(C)c2ncc(N)cc12 | 84 to 86
CC1(c2cccc(-n3cnnn3)c2)NC(=O)NC1=O (stereo unspecified) | 190 to 192
Clc1ccccc1Nc1nc2ccccc2s1 | 126 to 128
Nc1cc(Br)ccc1[N+](=O)[O-] | 143 to 145
CC(C)(C)OC(=O)NCC#N | 53 to 57
Brc1cnc2c(c1)NCCO2 | 149 to 151
CC(C)C(=O)N1CCCCC1C(=O)O (stereo unspecified) | 123 to 125
CC(C)(C)OC(=O)Nc1ccsc1Br | 69 to 71
Fc1ccc2nc(S)n(-c3ccccc3F)c2c1 | 220 to 222
O=c1ccn2ncc(Br)c2[nH]1 | 349 to 351
Cc1cc(C(=O)O)nn1-c1ccccc1Cl | 179 to 181
CCc1nc(N)sc1C(=O)OC | 181 to 183
N#CCc1c[nH]c2cc(Cl)ccc12 | 99 to 101
Cc1nc(-c2ccncc2)[nH]c(=O)c1CC(=O)O | 252 to 254
O=C(Nc1ccsc1C(=O)O)c1ccc(Br)cc1 | 240 to 242
CC(CC(N)=S)n1cc(Cl)cn1 (stereo unspecified) | 128 to 130
Cc1c(NS(=O)(=O)c2ccc(N)c(N)c2)c(=O)n(-c2ccccc2)n1C | 233 to 235
O=C(O)Cc1csc(-c2ccc(Br)s2)n1 | 142 to 144
COC(=O)c1cc2c(Br)ccc(F)c2[nH]1 | 189 to 191
CC(C)N(C)S(=O)(=O)c1ccc(NC(=O)CCl)cc1 | 118 to 120

Structure (SMILES) | melting point [°C]
COC(=O)c1cc2ccc(C)cc2[nH]1 | 131 to 133
COC(=O)CCCCCNC(N)=S | 84 to 86
Cc1cc(C)cc(C(N)c2cccnc2)c1 (stereo unspecified) | 47 to 49
CN1CCN(c2ccnc(C#N)c2)CC1 | 114 to 116
O=C(O)Cc1csc(-c2cc(Br)cs2)n1 | 129 to 131
O=C(O)CNC(=O)C1CCCC1 | 109 to 111
NNC(=S)NC1CC1 | 100 to 102
CN(C)S(=O)(=O)c1cccc(N)c1 | 125 to 127
O=Cc1c(Cl)cccc1OCc1ccccc1Cl | 92 to 94
COc1ccc(S(N)(=O)=O)cc1Br | 139 to 141
COc1cc(-c2cc(C(=O)NN)c3ccccc3n2)cc(OC)c1OC | 200 to 202
C=CCc1cc(C(=O)OC)cc(OC)c1O | 76 to 78
CC(=O)c1cc(C(=O)O)n(C)c1 | 177 to 181
COc1cc2nc(C)sc2cc1OC | 70 to 72
CC(=O)c1cccc(N(S(C)(=O)=O)S(C)(=O)=O)c1 | 185 to 187
O=C(O)c1nn(-c2ccc(F)cc2F)cc1O | 203 to 205
O=[N+]([O-])c1ccc(Cl)c(Br)c1 | 57 to 59
Cc1cnn(-c2ccc(S(N)(=O)=O)cc2F)c1 | 189 to 191
Cn1c(N)c(C(=O)CCl)c(=O)n(C)c1=O | 185 to 187
COc1cccc(-c2nn(Cc3ccccc3)cc2C(=O)O)c1 | 174 to 176
Fc1ccc(F)c2c(Cl)ccnc12 | 154 to 156

Structure (SMILES) | melting point [°C]
COC(=O)c1cc(Cl)cc([N+](=O)[O-])c1O | 163 to 165
Nc1cc(-c2cc3ccccc3o2)n[nH]1 | 124 to 126
COC(=O)CCCN1C(=O)NC(C)(C)C1=O | 60 to 62
NC(Cc1ccc(O)cc1)c1nc2ccccc2[nH]1 (stereo unspecified) | 193 to 195
Cc1n[nH]c(-c2ccccn2)n1 | 167 to 169
Cn1cnnc1-c1cncc(O)c1 | 266 to 268
O=C(CC(=O)c1ccccc1)Nc1ccccc1 | 107 to 109
Cc1cc(C)nc(-n2nc(N)cc2C)n1 | 134 to 136
Cc1ccc(-c2cnnc(N)n2)o1 | 274 to 276
Brc1cncc(-c2ncc[nH]2)c1 | 189 to 191
CN(C)S(=O)(=O)c1ccc(F)c([N+](=O)[O-])c1 | 118 to 120
O=C(O)c1cc2c(cc1O)OCO2 | 189 to 191
CC(C)c1cc(C(=O)O)cc(O)n1 | 309 to 311
CCOc1cc(/C=C(\C(=O)O)c2ccccc2)ccc1O | 186 to 188
N#Cc1cc(C(F)(F)F)ccc1S(=O)(=O)Cl | 87 to 89
CNc1ccc(C#N)cc1F | 76 to 78
Cc1nc(-c2ccc(Cl)nc2)[nH]c(=O)c1C | 263 to 265
Cc1cccc2nc(C(F)(F)F)[nH]c(=O)c12 | 118 to 120
CCOC(=O)c1[nH]c(C)c(C(=O)O)c1C | 103 to 105
O=C(O)Cc1cc(Cl)c2c(c1)OCCCO2 | 166 to 168
COC(=O)COc1ccc(C(=O)O)cc1OC | 170 to 172

Further lines, results first:

melting point [°C] | Structure (SMILES)
87 to 89 | CCOC(=O)c1cnn(-c2cccc(N)c2)c1C(F)(F)F
82 to 84 | Nc1ccc(NC(=O)CN2CCCCCC2)cc1
158 to 160 | CC(NC(=O)c1ccc(Cl)cc1)C(=O)O (stereo unspecified)
229 to 231 | O=C(c1c[nH]c2ccccc12)N1CCCC1
159 to 161 | Cn1cnn(-c2ccc(N)cc2)c1=O
168 to 170 | Cc1nn(-c2ccc(F)cc2)c2[nH]nc(N)c12
88 to 92 | CCCCc1ccc(-n2nnnc2S)cc1
179 to 181 | Nn1c(S)nnc1Cc1ccccc1
65 to 67 | CNCC1CCN(c2ccncc2)CC1
239 to 241 | Nc1ccc(N2C(=O)CCC2=O)cc1
174 to 176 | Nc1ccc2[nH]c3c(c2c1)CCCC3
102 to 104 | CCOc1ccc(-c2nc(CCl)co2)cc1
116 to 118 | N#Cc1ccc(S(=O)(=O)CCCl)cc1
254 to 256 | O=C(O)c1ccc2ncc(I)n2c1
169 to 171 | O=S(=O)(c1ccc(S)nc1)N1CCN(Cc2ccccc2)CC1
147 to 149 | NC(=O)NCc1ccccc1F
75 to 77 | CC(N)c1ccc(OCC(=O)NC2CC2)cc1 (stereo unspecified)
243 to 245 | Cc1ccc2oc(C(=O)O)cc2c1
104 to 106 | Cn1ncc2c1CCCC2O (stereo unspecified)

melting point [°C] | Structure (SMILES)
216 to 218 | O=C(O)C1(c2c(Cl)cccc2Cl)CC1
127 to 129 | O=C(O)Cc1coc2cc(O)ccc12
139 to 141 | ClCc1cn(-c2ccc(Cl)cc2)nn1
90 to 92 | Nc1sc2c(c1C(=O)N1CCOCC1)CCCC2
169 to 171 | O=C(O)Cn1ccc2ccccc21
138 to 140 | NCc1ccc(N2CCC(CO)CC2)cc1
218 to 220 | CN1CCC(Oc2ccc(C(=O)O)cc2)CC1
281 to 283 | O=C1CCNc2ccc(C(=O)O)cc2N1
138 to 140 | Nc1ccc(Oc2ccccc2)cc1C(=O)O
168 to 170 | Nc1cccc(Cn2cnc3ccccc32)c1
96 to 98 | NCc1ccc(NC(=O)CCCOc2ccccc2)cc1
111 to 124 | CC(=O)c1ccc(-n2cncn2)cc1
82 to 84 | CCC(=O)c1ccc(C(=O)OC)cc1
60 to 62 | CN1CCN(c2ccc(CN)cn2)CC1
175 to 177 | CS(=O)(=O)c1ccc(NC(=O)OCC(F)(F)F)cc1
81 to 83 | COC(=O)c1ccc(-c2nc(C)cs2)cc1
146 to 148 | Nc1nc2ccccc2n1CCCc1ccccc1
179 to 181 | Cc1nc(CCC(=O)O)oc1-c1ccc(Br)cc1
241 to 243 | O=C(O)c1cccc(S(=O)(=O)Nc2ccc(Br)cc2)c1
